Several values for one entry are separate records, joined by “and”; a condition that tells them apart may be missing. Identical values can stand only once.
Tested on: individuals genotyped at the rs1083338 locus (BAI3 gene)
Assay: QT prolongation (change in QTc, Fridericia) after oral iloperidone for two weeks, by rs1083338 genotype
Format: in vivo, human
Conditions: for Odds Ratio: GG vs non-GG at rs1083338, iloperidone 24 mg/day; for High QT +test (number of individuals) / Low QT +test (number of individuals) / High QT −test (number of individuals) / Low QT −test (number of individuals): iloperidone 24 mg/day B.I.D. oral; for High QT +test (number of individuals) / Low QT +test (number of individuals): GG genotype at rs1083338; for High QT −test (number of individuals) / Low QT −test (number of individuals): genotype other than GG at rs1083338
Procedure: Since the QT interval changes with changes in heart rate, the QT interval is often measured as a corrected QT (QTc) interval. Any number of formulas may be employed to calculate the QTc, including, for example, the Fridericia formula (QTcF), the Bazett formula (QTcB), and the Rautaharju formula (QTp), among others. In the studies described herein, QT was calculated using the Fridericia formula. However, the present invention includes the use of any such formula or method for calculating a QTc or an uncorrected QT. Using the genotypes at the SNP loci above, it is possible, with a high degree of certainty, to predict an individual's predisposition to QT prolongation.

SMILES: COc1cc(C(C)=O)ccc1OCCCN1CCC(c2noc3cc(F)ccc23)CC1 [iloperidone, 1-[4-[3-[4-(6-fluoro-1,2-benzisoxazol-3-yl)-1-piperidinyl]propoxy]-3-methoxyphenl]ethanone]
- Odds Ratio (Change threshold QT > 5 msec): 4.21
- High QT +test (number of individuals) (Change threshold QT > 5 msec): 39
- Low QT +test (number of individuals) (Change threshold QT > 5 msec): seven and 7
- High QT −test (number of individuals) (Change threshold QT > 5 msec): 78
- Low QT −test (number of individuals) (Change threshold QT > 5 msec): 59
- Odds Ratio (Change threshold QT > 15 msec): 3.61
- High QT +test (number of individuals) (Change threshold QT > 15 msec): 29
- Low QT +test (number of individuals) (Change threshold QT > 15 msec): 17
- High QT −test (number of individuals) (Change threshold QT > 15 msec): 44
- Low QT −test (number of individuals) (Change threshold QT > 15 msec): 93
- Odds Ratio (Change threshold QT > 30 msec): 3.84
- High QT +test (number of individuals) (Change threshold QT > 30 msec): 14
- Low QT +test (number of individuals) (Change threshold QT > 30 msec): 32
- High QT −test (number of individuals) (Change threshold QT > 30 msec): 14
- Low QT −test (number of individuals) (Change threshold QT > 30 msec): 123

— patent US9072742B2, “Method of predicting a predisposition to QT prolongation” (Vanda Pharmaceuticals, Inc., priority 2009, dated 2015)
